Reference: US11236069B2, “KIF18A inhibitors” (AMGEN INC., priority 2018, dated 2022)

Target: Recombinant human KIF18A (1-467 His-tagged) protein (Homo sapiens (Human), UniProt Q8NI77)
Assay: KIF18A Enzyme Assay: microtubule-stimulated ATPase activity (ADP-Glo)
Conditions: read-out: KIF18A ATPase IC50; 30 nM KIF18A, 30 μg/mL pig microtubules, ATP at Km 75 μM, ADP-Glo luminescence
Text: KIF18A Enzyme Assay: Microtubule-stimulated ATPase activity assay is used to measure KIF18A enzyme activity after treatment with compound. Compounds were 2-fold serially diluted in DMSO (Sigma Inc) over 22-point concentration range. […] The assay measures ADP formed from the ATPase reaction.

Recombinant human KIF18A (1-467 His-tagged) protein, sequence (Q8NI77 1-467): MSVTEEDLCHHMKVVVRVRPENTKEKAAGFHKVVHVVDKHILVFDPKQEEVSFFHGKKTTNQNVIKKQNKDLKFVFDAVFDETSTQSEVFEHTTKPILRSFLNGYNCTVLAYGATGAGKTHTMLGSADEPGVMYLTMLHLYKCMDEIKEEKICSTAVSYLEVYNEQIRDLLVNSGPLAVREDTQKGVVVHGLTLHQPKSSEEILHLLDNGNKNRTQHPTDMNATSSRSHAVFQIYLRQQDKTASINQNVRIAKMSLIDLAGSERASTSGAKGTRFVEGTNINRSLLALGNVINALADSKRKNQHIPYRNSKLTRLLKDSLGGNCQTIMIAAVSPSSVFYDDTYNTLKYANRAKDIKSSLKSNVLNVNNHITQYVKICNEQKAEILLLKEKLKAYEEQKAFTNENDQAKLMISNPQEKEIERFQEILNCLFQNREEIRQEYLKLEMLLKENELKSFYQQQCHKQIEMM
Recombinant human KIF18A (1-467 His-tagged) protein, sequence (P02550 whole entry partner): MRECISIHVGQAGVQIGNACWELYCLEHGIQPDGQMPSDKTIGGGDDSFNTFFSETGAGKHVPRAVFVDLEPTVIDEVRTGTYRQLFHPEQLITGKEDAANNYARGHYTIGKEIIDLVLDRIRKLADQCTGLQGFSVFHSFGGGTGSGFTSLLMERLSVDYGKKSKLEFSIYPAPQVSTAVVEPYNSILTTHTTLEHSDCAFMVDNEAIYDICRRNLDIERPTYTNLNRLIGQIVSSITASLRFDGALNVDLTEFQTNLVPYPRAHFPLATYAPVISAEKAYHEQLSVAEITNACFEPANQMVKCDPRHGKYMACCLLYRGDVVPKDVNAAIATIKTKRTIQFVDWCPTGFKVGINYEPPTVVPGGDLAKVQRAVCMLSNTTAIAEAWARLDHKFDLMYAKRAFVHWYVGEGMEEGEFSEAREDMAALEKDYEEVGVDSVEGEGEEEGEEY
Recombinant human KIF18A (1-467 His-tagged) protein, sequence (P02554 whole entry partner): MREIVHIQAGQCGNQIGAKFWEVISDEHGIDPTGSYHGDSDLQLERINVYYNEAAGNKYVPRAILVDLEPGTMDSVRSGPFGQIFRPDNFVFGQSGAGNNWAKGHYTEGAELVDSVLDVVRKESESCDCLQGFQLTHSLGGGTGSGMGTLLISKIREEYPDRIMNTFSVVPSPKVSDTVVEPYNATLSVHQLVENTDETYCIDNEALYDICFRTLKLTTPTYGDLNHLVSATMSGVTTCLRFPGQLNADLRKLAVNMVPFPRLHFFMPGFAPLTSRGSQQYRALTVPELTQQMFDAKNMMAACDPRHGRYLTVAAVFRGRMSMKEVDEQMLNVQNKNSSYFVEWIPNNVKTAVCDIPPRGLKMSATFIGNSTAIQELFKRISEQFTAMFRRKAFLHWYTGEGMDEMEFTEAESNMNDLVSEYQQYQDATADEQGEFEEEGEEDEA

Row | IC50 [nM] | Compound
1 | 127 | Cc1cc(NC(=O)c2ccc(NS(=O)(=O)CCO)cc2N2CCC(C)(C)CC2)nc(N2CCC(F)(F)CC2)n1 [Example 11-41, N-(2-(4,4-Difluoropiperidin-1-yl)-6-methylpyrimidin-4-yl)-2-(4,4-dimethylpiperidin-1-yl)-4-((2-hydroxyethyl)sulfonamido)benzamide]
2 | 42 | Cc1cc(NC(=O)c2ccc(NS(=O)(=O)C3CCOC3)cc2N2CCC3(CC2)CC3)nc(N2CC(F)(F)C2)n1 (stereo in doubt) [Example 11-71, (R)-N-(2-(3,3-Difluoroazetidin-1-yl)-6-methylpyrimidin-4-yl)-2-(6-azaspiro[2.5]octan-6-yl)-4-((tetrahydrofuran)-3-sulfonamido)benzamide]
3 | 1090 | Cc1cc(NC(=O)c2ccc(NS(=O)(=O)CCO)cc2N2CCC3(CC2)CC3)nc(N2CC3(CC3)C2)n1 [Example 11-17, 4-((2-Hydroxyethyl)sulfonamido)-N-(6-methyl-2-(5-azaspiro[2.3]hexan-5-yl)pyrimidin-4-yl)-2-(6-azaspiro[2.5]octan-6-yl)benzamide]
4 | 99 | Cc1cc(NC(=O)c2ccc(NS(=O)(=O)C3(CO)CC3)cc2N2CCC3(CC2)CC3)nc(N2CCC(F)(F)CC2)n1 [Example 11-69]
5 | 69 | Cc1cc(NC(=O)c2ccc(S(=N)(=O)C3CC3)cc2N2CCC3(CC2)CC3)nc(N2CC(F)(F)C2)n1 (stereo not shown) [Example 19-9, 4-(Cyclopropanesulfonimidoyl)-N-(2-(3,3-difluoroazetidin-1-yl)-6-methylpyrimidin-4-yl)-2-(6-azaspiro[2.5]octan-6-yl)benzamide]
6 | 42 | Cc1cc(NC(=O)c2ccc(S(=O)(=O)NCCO)cc2N2CCC3(CC2)CC3)nc(OCCC(F)(F)F)n1 [Example 17-2, 4-(N-(2-Hydroxyethyl)sulfamoyl)-N-(6-methyl-2-(3,3,3-trifluoropropoxy)pyrimidin-4-yl)-2-(6-azaspiro[2.5]octan-6-yl)benzamide]
7 | 205 | Cc1cc(NC(=O)c2ccc(NS(=O)(=O)CCO)cc2N2CCC3(CC2)CC3)nc(N2CCC2)n1 [Example 11-19, N-(2-(Azetidin-1-yl)-6-methylpyrimidin-4-yl)-4-((2-hydroxyethyl)sulfonamido)-2-(6-azaspiro[2.5]octan-6-yl)benzamide]
8 | 49 | Cc1cc(NC(=O)c2ccc(NS(=O)(=O)CCO)cc2N2CCC3(CC2)CC3)nc(C2CC2)n1 [Example 11-3, N-(2-Cyclopropyl-6-methylpyrimidin-4-yl)-4-((2-hydroxyethyl)sulfonamido)-2-(6-azaspiro[2.5]octan-6-yl)benzamide]
9 | 79 | Cc1cc(NC(=O)c2ccc(NS(=O)(=O)C3CCOC3)cc2N2CCC3(CC2)CC3)nc(N2CCC(F)(F)CC2)n1 (stereo in doubt) [Example 11-73, (R)-N-(2-(4,4-Difluoropiperidin-1-yl)-6-methylpyrimidin-4-yl)-2-(6-azaspiro[2.5]octan-6-yl)-4-((tetrahydrofuran)-3 sulfonamido)benzamide]
10 | 245 | Cc1cc(NC(=O)c2ccc(NS(=O)(=O)CCO)cc2N2CCC3(CC2)CC3)nc(N2[C@@H](C)COC[C@@H]2C)n1 [Example 11-49, N-(2-((3S,5S)-3,5-Dimethylmorpholino)-6-methylpyrimidin-4-yl)-4-((2-hydroxyethyl)sulfonamido)-2-(6-azaspiro[2.5]octan-6-yl)benzamide]

Continued, compound first:

Row | Compound | IC50 [nM]
11 | Cc1cc(NC(=O)c2cc(C)c(NS(=O)(=O)CCO)cc2N2CCC3(CC2)CC3)nc(N2CCC(F)(F)CC2)n1 [Example 6-35, N-(2-(4,4-Difluoropiperidin-1-yl)-6-methylpyrimdin-4-yl)-4-((2-hydroxyethyl)sulfonamido)-5-methyl-2-(6-azaspiro[2.5]octan-6-yl)benzamide] | 144
12 | Cc1cc(NC(=O)c2ccc(S(=O)(=O)NC3(C)COC3)cc2N2CCC3(CC2)CC3)nc(NC(C)(C)CO)n1 [Example 1-7, N-(2-((1-Hydroxy-2-methylpropan-2-yl)amino)-6-methylpyrimidin-4-yl)-4-(N-(3-methyloxetan-3-yl)sulfamoyl)-2-(6-azaspiro[2.5]octan-6-yl)benzamide] | 168
13 | Cc1cc(NC(=O)c2ccc(NS(=O)(=O)CC3(O)COC3)cc2N2CCC3(CC2)CC3)nc(N2CCC(F)(F)CC2)n1 [Example 6-19, N-(2-(4,4-Difluoropiperidin-1-yl)-6-methylpyrimidin-4-yl)-4-(((3-hydroxyoxetan-3-yl)methyl)sulfonamido)-2-(6-azaspiro[2.5]octan-6-yl)benzamide] | 39
14 | Cc1cc(NC(=O)c2ccc(N3CCOCS3(=O)=O)cc2N2CCC3(CC2)CC3)nc(N2CCC(F)(F)CC2)n1 [Example 6-9, N-(2-(4,4-Difluoropiperidin-1-yl)-6-methylpyrimidin-4-yl)-4-(3,3-dioxido-1,3,4-oxathiazinan-4-yl)-2-(6-azaspiro[2.5]octan-6-yl)benzamide] | 246
15 | Cc1cc(NC(=O)c2ccc(NS(=O)(=O)CCCO)cc2N2CCC3(CC2)CC3)nc(N2CCO[C@H](C)C2)n1 [Example 6-8, (R)-4-((3-Hydroxypropyl)sulfonamido)-N-(6-methyl-2-(2-methylmorpholino)pyrimidin-4-yl)-2-(6-azaspiro[2.5]octan-6-yl)benzamide] | 107
16 | Cc1cc(NC(=O)c2ccc(NS(=O)(=O)CCO)cc2N2CCC3(CC2)CC3)nc(N2CC(F)(F)C2)n1 [Example 7, N-(2-(3,3-Difluoroazetidin-1-yl)-6-methylpyrimidin-4-yl)-4-((2-hydroxyethyl)sulfonamido)-2-(6-azaspiro[2.5]octan-6-yl)benzamide] | 23
